Reference: ChEMBL document CHEMBL5104103 (J Med Chem, 2022)
Values after ≈ are worked out from the molar mass of the structure shown.

Assays:
[1] = Solubility of compound in PBS at pH 7 by LCMS/MS analysis; format: physicochemical
[2] = Permeability across apical to basolateral membrane in human Caco-2 cells; format: ADME, cell-based; details: read-out: permeability
[3] = Permeability across basolateral to apical membrane in human Caco-2 cells; format: ADME, cell-based; details: read-out: permeability
[4] = Inhibition of anti-IgM-stimulated CD20+ B cell activation in human whole blood assessed as measuring CD69 expression level pretreated for 1 hr followed by anti-IgM stimulation measured after 18 hrs by flow cytometry
[5] = Drug concentration in plasma of collagen-induced arthritis Lewis rat model 20 mg/kg measured after 12 hrs post-collection of plasma; format: ADME, organism-based
[6] = Cmax in rat at 20 mg/kg, po or 2 mg/kg, iv; format: ADME, organism-based; design: dose 20 mg/kg, route po; details: in vivo
[7] = AUC in rat at 20 mg/kg, po or 2 mg/kg, iv; format: ADME, organism-based; design: dose 20 mg/kg, route po; details: in vivo, read-out: AUC
[8] = Drug concentration in plasma of collagen-induced arthritis Lewis rat model 20 mg/kg measured after 24 hrs post-collection of plasma; format: ADME, organism-based; details: in vivo, BLD = below limit of detection
[9] = target: T1, Tyrosine-protein kinase Tec (Homo sapiens, UniProt P42680); assay: Inhibition of TEC (unknown origin) using peptide substrate in presence of ATP
T1 sequence (P42680 whole entry): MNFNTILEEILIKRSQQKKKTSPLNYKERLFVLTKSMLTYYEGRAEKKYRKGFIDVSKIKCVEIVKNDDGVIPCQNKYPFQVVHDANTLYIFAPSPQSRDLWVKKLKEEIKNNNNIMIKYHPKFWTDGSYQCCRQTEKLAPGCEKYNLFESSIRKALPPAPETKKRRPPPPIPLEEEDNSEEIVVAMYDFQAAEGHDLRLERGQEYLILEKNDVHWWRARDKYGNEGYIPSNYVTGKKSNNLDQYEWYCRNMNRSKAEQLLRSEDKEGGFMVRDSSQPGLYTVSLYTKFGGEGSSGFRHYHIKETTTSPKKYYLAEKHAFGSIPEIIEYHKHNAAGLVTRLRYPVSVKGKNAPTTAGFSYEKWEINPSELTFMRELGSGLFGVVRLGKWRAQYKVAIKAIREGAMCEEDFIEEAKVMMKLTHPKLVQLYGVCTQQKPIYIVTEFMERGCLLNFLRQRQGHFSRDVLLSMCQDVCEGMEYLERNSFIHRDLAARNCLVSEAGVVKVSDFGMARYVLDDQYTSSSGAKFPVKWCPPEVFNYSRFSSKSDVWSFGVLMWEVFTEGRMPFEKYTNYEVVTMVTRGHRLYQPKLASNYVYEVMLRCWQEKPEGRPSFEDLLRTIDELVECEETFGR

[10] = target: Tyrosine-protein kinase Blk (Homo sapiens, UniProt P51451); assay: Inhibition of BLK (unknown origin) using peptide substrate in presence of ATP
Sequence of Tyrosine-protein kinase Blk (P51451 whole entry): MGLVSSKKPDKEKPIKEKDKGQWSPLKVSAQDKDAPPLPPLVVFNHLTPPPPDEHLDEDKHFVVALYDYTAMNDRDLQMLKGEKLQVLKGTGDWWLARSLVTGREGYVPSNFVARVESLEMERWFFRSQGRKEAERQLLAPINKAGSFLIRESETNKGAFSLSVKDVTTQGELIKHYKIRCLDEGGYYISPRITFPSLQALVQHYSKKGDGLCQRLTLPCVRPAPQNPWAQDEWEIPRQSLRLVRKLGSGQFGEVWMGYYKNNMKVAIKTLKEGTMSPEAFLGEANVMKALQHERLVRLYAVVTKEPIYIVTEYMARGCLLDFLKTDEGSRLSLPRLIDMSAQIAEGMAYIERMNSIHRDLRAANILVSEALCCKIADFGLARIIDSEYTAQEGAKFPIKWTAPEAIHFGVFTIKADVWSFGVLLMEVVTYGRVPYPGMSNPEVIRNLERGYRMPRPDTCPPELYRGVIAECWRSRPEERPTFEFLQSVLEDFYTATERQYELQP

[11] = Oral bioavailability in rat at 20 mg/kg; format: ADME, organism-based; details: in vivo
[12] = Clearance in rat at 2 mg/kg, iv; format: ADME, organism-based; details: in vivo
[13] = Clearance in human liver S9 fraction assessed as measuring per mg protein by LCMS/MS analysis; format: ADME, subcellular; details: read-out: CLH
[14] = Drug concentration in plasma of collagen-induced arthritis Lewis rat model 20 mg/kg measured after 4 hrs post-collection of plasma; format: ADME, organism-based
[15] = target: T2, Cytoplasmic tyrosine-protein kinase BMX (Homo sapiens, UniProt P51813); assay: Inhibition of BMX (unknown origin) using peptide substrate in presence of ATP
T2 sequence (P51813 whole entry): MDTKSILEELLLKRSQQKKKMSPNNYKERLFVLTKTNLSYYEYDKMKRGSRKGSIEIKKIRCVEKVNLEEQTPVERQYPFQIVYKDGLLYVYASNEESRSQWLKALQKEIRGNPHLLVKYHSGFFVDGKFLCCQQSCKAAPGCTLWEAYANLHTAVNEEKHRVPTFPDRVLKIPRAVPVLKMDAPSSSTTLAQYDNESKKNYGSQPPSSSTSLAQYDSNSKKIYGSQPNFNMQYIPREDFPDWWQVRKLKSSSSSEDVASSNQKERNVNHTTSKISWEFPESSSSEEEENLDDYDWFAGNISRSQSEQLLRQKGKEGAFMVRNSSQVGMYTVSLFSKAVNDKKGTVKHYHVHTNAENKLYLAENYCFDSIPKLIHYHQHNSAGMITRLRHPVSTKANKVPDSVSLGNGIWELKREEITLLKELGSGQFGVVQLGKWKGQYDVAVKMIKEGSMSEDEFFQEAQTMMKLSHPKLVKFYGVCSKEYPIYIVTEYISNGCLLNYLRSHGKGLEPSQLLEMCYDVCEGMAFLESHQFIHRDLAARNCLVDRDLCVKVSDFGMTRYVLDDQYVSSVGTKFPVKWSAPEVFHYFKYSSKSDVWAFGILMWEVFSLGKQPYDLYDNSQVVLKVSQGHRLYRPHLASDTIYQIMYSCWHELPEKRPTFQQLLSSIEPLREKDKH

[16] = Drug concentration in plasma of collagen-induced arthritis Lewis rat model 20 mg/kg measured after 1 hr post-collection of plasma; format: ADME, organism-based
[17] = target: T3, Tyrosine-protein kinase TXK (Homo sapiens, UniProt P42681); assay: Inhibition of RLK (unknown origin) using peptide substrate in presence of ATP
T3 sequence (P42681 whole entry): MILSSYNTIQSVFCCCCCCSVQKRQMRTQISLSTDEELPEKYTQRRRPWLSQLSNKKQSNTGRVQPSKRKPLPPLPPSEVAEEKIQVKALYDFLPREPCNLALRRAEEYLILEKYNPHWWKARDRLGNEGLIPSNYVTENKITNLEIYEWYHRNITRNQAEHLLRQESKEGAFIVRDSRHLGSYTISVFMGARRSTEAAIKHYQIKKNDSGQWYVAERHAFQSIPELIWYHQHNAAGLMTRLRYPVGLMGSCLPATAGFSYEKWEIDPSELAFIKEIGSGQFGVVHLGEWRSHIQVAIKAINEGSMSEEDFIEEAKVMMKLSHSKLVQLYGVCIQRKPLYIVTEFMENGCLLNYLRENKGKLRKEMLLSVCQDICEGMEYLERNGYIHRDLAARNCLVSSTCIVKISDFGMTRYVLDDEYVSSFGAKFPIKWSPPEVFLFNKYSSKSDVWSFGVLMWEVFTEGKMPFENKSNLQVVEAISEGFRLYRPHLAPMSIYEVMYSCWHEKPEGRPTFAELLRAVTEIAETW

[18] = target: Voltage-gated inwardly rectifying potassium channel KCNH2 (Homo sapiens, UniProt Q12809); assay: Inhibition of hERG; format: toxicity
Sequence of Voltage-gated inwardly rectifying potassium channel KCNH2 (Q12809 whole entry): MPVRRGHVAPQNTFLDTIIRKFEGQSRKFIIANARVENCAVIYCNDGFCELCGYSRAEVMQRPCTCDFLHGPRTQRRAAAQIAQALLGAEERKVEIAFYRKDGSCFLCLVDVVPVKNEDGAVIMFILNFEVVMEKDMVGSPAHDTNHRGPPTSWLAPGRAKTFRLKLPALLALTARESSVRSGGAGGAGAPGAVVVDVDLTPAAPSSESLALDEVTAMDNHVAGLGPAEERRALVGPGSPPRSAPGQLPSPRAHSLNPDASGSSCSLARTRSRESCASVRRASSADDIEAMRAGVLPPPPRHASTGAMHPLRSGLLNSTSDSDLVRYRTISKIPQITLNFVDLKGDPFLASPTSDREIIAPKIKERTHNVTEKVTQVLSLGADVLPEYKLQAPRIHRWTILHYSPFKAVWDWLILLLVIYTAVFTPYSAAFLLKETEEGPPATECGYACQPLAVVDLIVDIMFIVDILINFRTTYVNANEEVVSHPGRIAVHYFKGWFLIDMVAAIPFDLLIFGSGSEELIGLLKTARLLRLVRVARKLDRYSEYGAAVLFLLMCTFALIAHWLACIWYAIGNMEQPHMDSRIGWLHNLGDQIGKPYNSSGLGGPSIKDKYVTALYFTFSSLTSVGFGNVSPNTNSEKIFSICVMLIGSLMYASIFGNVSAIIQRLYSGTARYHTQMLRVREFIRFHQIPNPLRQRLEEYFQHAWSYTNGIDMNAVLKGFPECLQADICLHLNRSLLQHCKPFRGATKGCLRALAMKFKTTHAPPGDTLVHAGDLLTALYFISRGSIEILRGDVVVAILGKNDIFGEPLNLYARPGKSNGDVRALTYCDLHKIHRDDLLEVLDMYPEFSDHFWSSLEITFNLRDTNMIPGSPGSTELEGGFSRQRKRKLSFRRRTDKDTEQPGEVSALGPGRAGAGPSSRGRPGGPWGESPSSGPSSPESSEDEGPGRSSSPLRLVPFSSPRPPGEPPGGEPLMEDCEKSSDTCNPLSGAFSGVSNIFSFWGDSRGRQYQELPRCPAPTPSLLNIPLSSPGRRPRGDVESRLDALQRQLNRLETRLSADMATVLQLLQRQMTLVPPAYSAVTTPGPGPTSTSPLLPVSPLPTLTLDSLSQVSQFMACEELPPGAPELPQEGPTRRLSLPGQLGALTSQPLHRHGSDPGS

Structure (SMILES)	solubility [1] [µM]	Papp A→B [2] [×10⁻⁶ cm/s]	Papp B→A [3] [×10⁻⁶ cm/s]	IC50 [4] [nM]	microsomal CLint [13] [µL/min/mg]	further results
CC(C)(/C=C(\C#N)C(=O)N1CCC[C@@H](n2nc(-c3ccc(Oc4ccccc4)cc3F)c3c(N)ncnc32)C1)N1CCNCC1	238 (≈ 145 µg/mL)	0.07	3.4	401		
N#C/C(=C/C1CC1)C(=O)N1CCC[C@@H]1Cn1nc(-c2ccc(Oc3ccccc3)cc2F)c2c(N)ncnc21				196		
CC(C)(/C=C(\C#N)C(=O)N1CCC[C@@H](n2nc(-c3ccc(Oc4ccccc4)cc3F)c3c(N)ncnc32)C1)N1CCOCC1				16.7		
CC(C)(/C=C(\C#N)C(=O)N1CCC[C@@H](n2nc(-c3ccc(Oc4ccccc4)cc3F)c3c(N)ncnc32)C1)N1CCN(C2COC2)CC1 [RILZABRUTINIB]	125 (≈ 83.2 µg/mL)	1.7	5.3	123	23	concentration at 12 h [5]: 4.6 ng/mL; Cmax [6]: 270 ng/mL; AUC [7]: 622 ng·h/mL; Cp [8]: Bld; IC50 [9]: 0.8 nM; IC50 [10]: 6.3 nM; bioavailability [11]: 12.3%; clearance [12]: 66 mL/min/kg; concentration at 4 h [14]: 106 ng/mL; IC50 [15]: 1 nM; concentration at 1 h [16]: 128 ng/mL; IC50 [17]: 1.2 nM
CC1(/C=C(\C#N)C(=O)N2CCC[C@@H](n3nc(-c4ccc(Oc5ccccc5)cc4F)c4c(N)ncnc43)C2)COC1				224		
CC(C)(N)/C=C(\C#N)C(=O)N1CCC[C@@H](n2nc(-c3ccc(Oc4ccccc4)cc3F)c3c(N)ncnc32)C1				360		
CC(C)(/C=C(\C#N)C(=O)N1CCC[C@@H](n2nc(-c3ccc(Oc4ccccc4)cc3F)c3c(N)ncnc32)C1)CO				821		
CN1CCN(C(C)(C)/C=C(\C#N)C(=O)N2CCC[C@@H](n3nc(-c4ccc(Oc5ccccc5)cc4F)c4c(N)ncnc43)C2)CC1=O	90 (≈ 57.4 µg/mL)	0.4	5.5	130	80	Cmax [6]: 345 ng/mL; AUC [7]: 528 ng·h/mL; bioavailability [11]: 10.9%; clearance [12]: 73 mL/min/kg
C[C@@H]1CN(C(C)(C)/C=C(\C#N)C(=O)N2CCC[C@@H](n3nc(-c4ccc(Oc5ccccc5)cc4F)c4c(N)ncnc43)C2)C[C@H](C)N1C	263 (≈ 171 µg/mL)	0.3	2.5	128	14	Cmax [6]: 392 ng/mL; AUC [7]: 2460 ng·h/mL; inhibition (INH) [18]: Active; bioavailability [11]: 67%; clearance [12]: 91 mL/min/kg
CN(C)C(C)(C)/C=C(\C#N)C(=O)N1CCC[C@@H](n2nc(-c3ccc(Oc4ccccc4)cc3F)c3c(N)ncnc32)C1				158		
COC(=O)N1CCN(C(C)(C)/C=C(\C#N)C(=O)N2CCC[C@@H](n3nc(-c4ccc(Oc5ccccc5)cc4F)c4c(N)ncnc43)C2)CC1	1.1 (≈ 0.735 µg/mL)	3.2	24	179	68	Cmax [6]: 142 ng/mL; AUC [7]: 432 ng·h/mL; bioavailability [11]: 11.5%; clearance [12]: 89 mL/min/kg
COCCN1CCN(C(C)(C)/C=C(\C#N)C(=O)N2CCC[C@@H](n3nc(-c4ccc(Oc5ccccc5)cc4F)c4c(N)ncnc43)C2)CC1	210 (≈ 140 µg/mL)	0.2	6	169	49	
C[C@@H]1CN(C(C)(C)/C=C(\C#N)C(=O)N2CCC[C@@H](n3nc(-c4ccc(Oc5ccccc5)cc4F)c4c(N)ncnc43)C2)C[C@H](C)N1				442		
CC(=O)N1CCN(C(C)(C)/C=C(\C#N)C(=O)N2CCC[C@@H](n3nc(-c4ccc(Oc5ccccc5)cc4F)c4c(N)ncnc43)C2)CC1	31 (≈ 20.2 µg/mL)	0.6	22	193		
CC(C)(/C=C(\C#N)C(=O)N1CCC[C@@H](n2nc(-c3ccc(Oc4ccccc4)cc3F)c3c(N)ncnc32)C1)N1CCNC(=O)C1		1	25.8	381		
